# Source: the supplement of paper PMC10307832
# Assays:
# Experiment in all cases: relative viability (nuclei count vs DMSO), 5 days (fraction); higher = more cells survive
# R406 + OSI-027 = compound: COc1cc(Nc2ncc(F)c(Nc3ccc4c(n3)NC(=O)C(C)(C)O4)n2)cc(OC)c1OC [R406] + COc1cccc2cc(-c3nc([C@H]4CC[C@H](C(=O)O)CC4)n4ncnc(N)c34)[nH]c12 [OSI-027] (partner 0.5 µM)
# How it was run: (§1)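 Relative viability is defined as nuclei in treated wells over nuclei in vehicle wells. Duplicate plates were run and medians reported. Lung cancer cell lines in 1536-well plates were dosed by pin tool one day after seeding, with one drug or with a fixed anchor-drug dose plus five library-drug doses (not always all listed) in √10 steps, and nuclei were counted after 5 days.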
# R406 + Tozasertib = compound: COc1cc(Nc2ncc(F)c(Nc3ccc4c(n3)NC(=O)C(C)(C)O4)n2)cc(OC)c1OC [R406] + Cc1cc(Nc2cc(N3CCN(C)CC3)nc(Sc3ccc(NC(=O)C4CC4)cc3)n2)n[nH]1 [Tozasertib] (partner 0.1 µM)
# How it was run: as §1
# R406 + AZD7762 = compound: COc1cc(Nc2ncc(F)c(Nc3ccc4c(n3)NC(=O)C(C)(C)O4)n2)cc(OC)c1OC [R406] + NC(=O)Nc1cc(-c2cccc(F)c2)sc1C(=O)N[C@H]1CCCNC1 [AZD7762] (partner 0.2 µM)
# How it was run: as §1
# Daporinad + Alpelisib = compound: O=C(/C=C/c1cccnc1)NCCCCC1CCN(C(=O)c2ccccc2)CC1 [Daporinad] + Cc1nc(NC(=O)N2CCC[C@H]2C(N)=O)sc1-c1ccnc(C(C)(C)C(F)(F)F)c1 [Alpelisib] (partner 2 µM)
# How it was run: as §1
Cell Line,relative viability (R406 + OSI-027; first compound 0.08 µM),relative viability (R406 + OSI-027; first compound 0.253 µM),relative viability (R406 + OSI-027; first compound 0.8 µM),relative viability (R406 + OSI-027; first compound 2.53 µM),relative viability (R406 + OSI-027; first compound 8 µM),relative viability (R406 + Tozasertib; first compound 0.08 µM),relative viability (R406 + Tozasertib; first compound 0.253 µM),relative viability (R406 + Tozasertib; first compound 0.8 µM),relative viability (R406 + Tozasertib; first compound 2.53 µM),relative viability (R406 + Tozasertib; first compound 8 µM),relative viability (R406 + AZD7762; first compound 0.08 µM),relative viability (R406 + AZD7762; first compound 0.253 µM),relative viability (R406 + AZD7762; first compound 0.8 µM),relative viability (R406 + AZD7762; first compound 2.53 µM),relative viability (R406 + AZD7762; first compound 8 µM),relative viability (Daporinad + Alpelisib; first compound 0.0005 µM),relative viability (Daporinad + Alpelisib; first compound 0.001581 µM),relative viability (Daporinad + Alpelisib; first compound 0.005 µM),relative viability (Daporinad + Alpelisib; first compound 0.01581 µM)
LCLC-103H,0.419,0.453,0.536,0.362,0.331,0.524,0.495,0.569,0.503,0.376,0.662,0.844,0.813,0.747,0.569,1.01,1.01,1.02,1.06
LK-2,0.218,0.215,0.186,0.149,0.146,0.17,0.163,0.166,0.182,0.186,0.373,0.407,0.333,0.354,0.104,0.995,1.24,0.719,0.549
LOU-NH91,0.728,0.714,0.651,0.448,0.429,0.723,0.764,0.644,0.472,0.466,0.718,0.769,0.706,0.574,0.473,0.719,0.795,0.851,0.997
LU99A,0.322,0.283,0.308,0.253,0.276,0.274,0.312,0.246,0.313,0.265,0.317,0.358,0.39,0.413,0.283,0.492,0.602,0.584,0.574
LXF-289,0.805,0.84,0.931,0.377,0.487,0.192,0.178,0.197,0.183,0.067,1.03,1.19,1.11,0.88,0.762,0.977,1.09,1.04,1.15
NCI-H23,0.588,0.647,0.602,–,0.269,0.35,0.394,0.511,–,0.148,0.215,0.265,0.283,0.25,0.269,0.69,0.776,0.782,0.416
NCI-H322M,0.524,0.514,0.602,0.348,0.347,0.496,0.465,0.489,0.343,0.283,0.453,0.54,0.588,0.36,0.423,0.757,0.945,0.85,0.769
NCI-H358,0.752,0.678,0.893,0.208,0.118,0.107,0.116,0.081,0.109,0.0818,0.502,0.472,0.509,0.272,0.217,0.833,0.984,0.887,0.834
NCI-H441,0.528,0.683,0.574,0.255,0.408,0.676,0.72,0.635,0.524,0.265,1.03,1.03,1.26,0.953,0.958,–,0.603,0.754,0.717
NCI-H460,0.621,0.587,1.13,0.288,0.111,0.493,0.486,0.481,0.344,0.264,0.651,0.829,0.69,0.61,0.762,0.54,0.64,0.502,0.566
NCI-H596,0.793,0.682,0.903,0.329,0.269,0.868,1.01,1.05,0.513,0.267,1.08,1.1,0.977,0.825,0.836,0.539,0.551,0.617,0.372
NCI-H647,0.657,0.504,0.878,0.298,0.15,0.261,0.327,0.26,0.21,0.173,0.373,0.419,0.467,0.413,0.29,1.2,1.07,1.19,1.05
NCI-H650,0.453,0.553,0.465,0.45,0.344,0.701,0.885,0.699,0.614,0.599,0.822,1.16,1.02,0.593,0.788,1.08,1.24,1.32,1.38
NCI-H727,0.712,0.829,0.641,0.304,0.537,0.586,0.566,0.694,0.594,0.433,0.675,0.666,0.535,0.681,0.747,0.622,0.479,0.619,0.497
NCI-H838,0.407,0.472,0.368,0.326,0.167,0.247,0.327,0.248,0.254,0.217,0.915,1.02,1.04,0.853,0.741,0.973,1.03,1.06,0.512
NCI-H1355,0.474,0.404,0.456,0.163,0.189,0.572,0.575,0.558,0.572,0.258,0.799,0.758,0.747,0.555,0.581,0.719,0.873,1.02,0.856
NCI-H1395,0.592,0.73,0.754,0.429,0.424,0.714,0.77,0.734,0.647,0.519,0.427,0.354,0.351,0.417,0.36,0.987,1.16,1.39,1.31

Cell Line,relative viability (R406 + OSI-027; first compound 0.08 µM),relative viability (R406 + OSI-027; first compound 0.253 µM),relative viability (R406 + OSI-027; first compound 0.8 µM),relative viability (R406 + OSI-027; first compound 2.53 µM),relative viability (R406 + OSI-027; first compound 8 µM),relative viability (R406 + Tozasertib; first compound 0.08 µM),relative viability (R406 + Tozasertib; first compound 0.253 µM),relative viability (R406 + Tozasertib; first compound 0.8 µM),relative viability (R406 + Tozasertib; first compound 2.53 µM),relative viability (R406 + Tozasertib; first compound 8 µM),relative viability (R406 + AZD7762; first compound 0.08 µM),relative viability (R406 + AZD7762; first compound 0.253 µM),relative viability (R406 + AZD7762; first compound 0.8 µM),relative viability (R406 + AZD7762; first compound 2.53 µM),relative viability (R406 + AZD7762; first compound 8 µM),relative viability (Daporinad + Alpelisib; first compound 0.0005 µM),relative viability (Daporinad + Alpelisib; first compound 0.001581 µM),relative viability (Daporinad + Alpelisib; first compound 0.005 µM),relative viability (Daporinad + Alpelisib; first compound 0.01581 µM)
NCI-H1437,0.91,0.86,1.11,0.835,0.593,0.403,0.433,0.409,0.417,0.416,1.04,1.19,1.13,1.05,1.05,1,1.01,1.03,0.936
NCI-H1651,0.632,0.749,0.804,0.621,0.286,0.719,0.865,0.641,0.592,0.496,0.432,0.544,0.513,0.396,0.446,1.04,0.905,0.895,0.923
NCI-H1666,0.829,0.851,0.88,0.829,0.642,0.584,0.725,0.582,0.633,0.418,1.12,0.937,0.893,0.892,0.773,1.04,1.13,1.23,0.881
NCI-H1734,0.604,0.684,0.647,0.381,0.374,0.294,0.272,0.262,0.26,0.206,0.58,0.582,0.679,0.228,0.313,0.703,0.736,0.695,0.582
NCI-H1755,0.667,0.78,0.692,0.331,0.376,0.463,0.529,0.605,0.504,0.331,0.382,0.493,0.369,0.335,0.253,0.883,0.979,0.599,0.898
NCI-H1793,0.251,0.273,0.303,0.116,0.158,0.333,0.353,0.389,0.155,0.109,0.471,0.368,0.415,0.283,0.413,0.745,0.749,0.732,0.792
NCI-H1915,0.619,0.708,0.581,–,0.4,0.459,0.474,0.521,–,0.463,0.687,0.751,0.735,0.614,0.614,1.04,1.09,1.14,1.11
NCI-H1944,0.398,0.41,0.419,0.304,0.242,0.252,0.272,0.241,0.228,0.181,0.484,0.449,0.523,0.388,0.349,0.892,0.907,0.822,0.844
NCI-H1975,0.699,0.678,0.854,0.252,0.15,0.75,0.918,0.785,0.189,0.109,–,0.757,0.771,0.341,0.325,0.69,0.602,0.755,0.678
NCI-H1993,0.546,0.521,0.55,0.515,0.552,0.597,0.536,0.605,0.493,0.432,0.741,1.1,0.727,0.719,0.537,0.696,0.67,0.685,0.688
NCI-H2085,0.863,0.968,0.861,0.259,0.345,0.83,0.892,0.872,0.632,0.379,1.03,1,1.02,0.72,0.726,0.952,1.01,1.14,1.07
NCI-H2087,0.44,0.597,0.658,–,0.499,0.293,0.238,0.298,–,0.253,1.36,1.47,1.33,1.06,1.25,1.07,1.36,1.14,0.928
NCI-H2126,0.624,0.78,0.661,0.606,0.641,0.829,0.962,0.848,0.806,0.545,0.937,1.12,1.08,0.909,0.858,0.734,0.758,0.777,0.813
NCI-H2170,0.734,0.654,0.688,0.415,0.648,0.758,0.703,0.708,0.615,0.632,0.81,0.766,0.948,0.596,0.708,0.811,0.825,0.795,0.839
NCI-H2347,0.381,0.436,0.479,0.278,0.253,0.537,0.671,0.682,0.458,0.347,0.785,0.81,0.776,0.422,0.529,1.11,1.22,1.02,1.08
NCI-H2405,0.658,0.686,0.608,0.556,0.283,0.76,0.845,0.82,0.804,0.542,0.715,0.869,0.85,0.692,0.244,0.918,0.939,0.928,0.466
NCI-H3122,0.956,1.06,1.01,0.319,0.78,0.491,0.415,0.34,0.328,0.45,1.06,1.04,0.969,0.804,0.924,0.659,0.964,0.78,0.708
